Data from patent publication US20250289814A1, “COMPOUNDS AS PARP1 INHIBITIORS” (NINGBO NEWBAY TECHNOLOGY DEVELOPMENT CO., LTD., priority 2022, published 2025).
Converted amounts (≈) assume the structure as drawn. “And” between values parts separate entries of the source, which are not always exact repeats. Equal values may be shown once. Read-outs that look alike come from different tables or passages of the source.

Legend:
[1] = target: Recombinant full length PARP1 (Homo sapiens (Human), UniProt P09874); assay: FP assay PARP1 (fluorescence anisotropy probe displacement); type: binding; conditions: 20 nM PARP1, 8 nM fluorescent probe, 4 h, room temperature
Recombinant full length PARP1, sequence (P09874 whole entry): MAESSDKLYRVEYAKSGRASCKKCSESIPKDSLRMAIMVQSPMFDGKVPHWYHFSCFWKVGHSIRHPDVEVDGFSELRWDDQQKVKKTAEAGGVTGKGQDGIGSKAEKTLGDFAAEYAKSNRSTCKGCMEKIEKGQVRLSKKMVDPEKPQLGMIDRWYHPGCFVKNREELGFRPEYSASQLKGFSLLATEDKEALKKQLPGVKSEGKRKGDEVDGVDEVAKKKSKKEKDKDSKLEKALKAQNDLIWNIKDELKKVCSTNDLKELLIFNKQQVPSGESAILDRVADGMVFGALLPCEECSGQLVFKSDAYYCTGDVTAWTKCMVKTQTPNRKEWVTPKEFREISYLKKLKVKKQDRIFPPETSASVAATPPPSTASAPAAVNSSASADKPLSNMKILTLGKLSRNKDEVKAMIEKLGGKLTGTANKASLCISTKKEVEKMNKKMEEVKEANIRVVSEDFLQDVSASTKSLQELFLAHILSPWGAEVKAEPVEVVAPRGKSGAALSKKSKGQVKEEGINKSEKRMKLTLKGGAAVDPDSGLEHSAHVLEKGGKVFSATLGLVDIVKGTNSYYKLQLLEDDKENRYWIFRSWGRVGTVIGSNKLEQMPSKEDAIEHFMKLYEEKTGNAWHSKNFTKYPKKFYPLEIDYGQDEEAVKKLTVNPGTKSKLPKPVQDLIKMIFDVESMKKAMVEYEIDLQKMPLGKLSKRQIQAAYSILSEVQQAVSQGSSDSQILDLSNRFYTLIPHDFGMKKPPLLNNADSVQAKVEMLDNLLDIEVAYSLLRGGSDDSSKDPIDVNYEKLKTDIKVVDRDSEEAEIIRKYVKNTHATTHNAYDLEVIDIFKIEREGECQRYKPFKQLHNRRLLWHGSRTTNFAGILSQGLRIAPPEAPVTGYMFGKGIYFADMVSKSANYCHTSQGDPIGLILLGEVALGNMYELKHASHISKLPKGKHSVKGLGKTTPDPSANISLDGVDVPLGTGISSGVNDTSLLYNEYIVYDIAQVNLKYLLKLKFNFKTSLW
Method: (§1) FP experiments were carried out at room temperature using no-binding black 384-well microplates. Recombinant full length PARP1 and PARP2 proteins produced in house were diluted to 20 nM and 60 nM, respectively, with assay buffer (50 mM Tris pH 8, 0.001% Triton X100, 10 mM MgCl2, and 150 mM NaCl) and incubated for 4 h with an equivalent volume of the 8 nM fluorescent probe diluted with assay buffer. Fluorescence anisotropy of the probe when bound to the proteins was measured in the presence of test compounds or solvent control and the effect on anisotropy determined. Polarization values were read using an Envision plate reader using excitation and emission wavelengths of 590 and 630 nm, respectively. All FP values are expressed as mP units. Inhibition ratio was calculated using readout (mP) following the equation as below: […]
(§2) % inhibition values for different test compound concentrations were calculated and fitted to a four parameter logistic plot in order to determine the IC50 value using XLfit.

[2] = target: Recombinant full length PARP2 (Homo sapiens (Human), UniProt Q9UGN5); assay: FP assay PARP2 (fluorescence anisotropy probe displacement); type: binding; conditions: 60 nM PARP2, 8 nM fluorescent probe, 4 h, room temperature
Recombinant full length PARP2, sequence (Q9UGN5 whole entry): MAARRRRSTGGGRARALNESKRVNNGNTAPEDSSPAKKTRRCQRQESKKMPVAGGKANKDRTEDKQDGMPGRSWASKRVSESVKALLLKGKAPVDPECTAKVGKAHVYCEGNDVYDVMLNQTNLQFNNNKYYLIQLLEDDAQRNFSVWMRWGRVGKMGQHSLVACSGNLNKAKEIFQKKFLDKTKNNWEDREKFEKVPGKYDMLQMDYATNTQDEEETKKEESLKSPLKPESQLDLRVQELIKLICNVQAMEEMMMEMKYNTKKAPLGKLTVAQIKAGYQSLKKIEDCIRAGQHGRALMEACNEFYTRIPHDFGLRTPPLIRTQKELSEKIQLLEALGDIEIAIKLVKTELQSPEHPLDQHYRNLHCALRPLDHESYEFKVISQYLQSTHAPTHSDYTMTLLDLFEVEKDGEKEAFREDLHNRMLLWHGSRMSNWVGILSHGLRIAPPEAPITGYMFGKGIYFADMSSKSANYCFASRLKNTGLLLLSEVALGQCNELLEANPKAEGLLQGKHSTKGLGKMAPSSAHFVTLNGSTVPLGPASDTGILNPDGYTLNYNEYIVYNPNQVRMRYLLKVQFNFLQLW
Method: as §1, §2

DLD1-BRCA2−/− cells = assay: Cell proliferation assay in DLD1-BRCA2−/− cell lines (CellTiter-Glo, 7 days); type: cell-based
Summary of the method: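 Cells in RPMI 1640 + 10% FBS seeded overnight, then exposed to compound or vehicle for 7 days at 37 °C, 5% CO2. Viability read on day 8 by CellTiter-Glo luminescence; % inhibition fitted to a four-parameter logistic curve for IC50.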

[3] = Caco2 (A-B/B-A) permeability; type: in vitro ADME; conditions: human; for efflux ratio at 120 min, 5 μM: Caco-2, pH 7.4, PappB-A/PappA-B, read-out: Caco2 efflux ratio (ER); for Papp A→B at 120 min, 5 μM: Caco-2, pH 7.4, apical-to-basolateral, read-out: Caco2 A-B apparent permeability (Papp); for Papp A→B at 120 min, 5 μM / Papp B→A at 120 min, 5 μM: HBSS pH 7.4, 120 min, 37° C.; for Papp B→A at 120 min, 5 μM: Caco-2, pH 7.4, basolateral-to-apical, read-out: Caco2 B-A apparent permeability (Papp)
Summary of the method: (§3)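 Bidirectional A-B and B-A transport of 5 μM compound across Caco-2 monolayers in HBSS (10 mM HEPES, pH 7.4), duplicate, ~37° C for 120 min. Donor and receiver levels measured by UPLC-MS/MS give Papp. Efflux ratio = PappB-A/PappA-B, with monolayer integrity checked by Lucifer yellow.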

[4] = Kinetic solubility, PBS, pH7.4; type: physicochemical; conditions: 300 μM test compound
Method: After incubation, the samples were filtered, and the filtrate was diluted by 1000-fold with water:acetonitrile 1:1 (v/v) for analysis by UPLC MS/MS to determine the concentration of test compound. The solubility value was calculated by quantification against a standard of known concentration.

[5] = Thermodynamic solubility, FaSSiF; type: physicochemical; conditions: for solubility thermodynamic at 24 h: FaSSIF, 25 °C, thermodynamic from solid
Method: All incubations were performed in duplicate. Test compound or the control compound diclofenac sodium (1.0 mg) were placed into 1.5 mL glass vials. FaSSIF (1000 μL) was added into the vials. The samples were transferred to Eppendorf Thermomixer Comfort plate shaker and shaken at 25° C., 1100 rpm for 24 hours. The samples were then filtered. The filtrate was diluted by 1000-fold with water:acetonitrile 1:1 (v/v) for analysis by UPLC MS/MS to determine the concentration of test compound. The solubility value was calculated by quantification against a standard of known concentration.

Caco-2 cell monolayers = assay: Caco2 (A-B/B-A) permeability; type: in vitro ADME; conditions: for Caco2 efflux ratio (ER): PappB-A/PappA-B; for Caco2 A-B apparent permeability (Papp): apical-to-basolateral; for Caco2 A-B apparent permeability (Papp) / Caco2 B-A apparent permeability (Papp): 5 μM, HBSS pH 7.4, 120 min, 37° C.; for Caco2 B-A apparent permeability (Papp): basolateral-to-apical
Summary of the method: as §3

[6] = PBS pH 7.4, 25 °C, pH 7.4, aqueous buffer, kinetic from dmso stock

SMILES	IC50 [1] [nM]	IC50 [2] [nM]	IC50 (DLD1-BRCA2−/− cells; Homo sapiens, DLD-1, 168 h) [nM]	efflux ratio at 120 min, 5 μM [3]	Papp A→B at 120 min, 5 μM [3] [×10⁻⁶ cm/s]	Papp B→A at 120 min, 5 μM [3] [×10⁻⁶ cm/s]	solubility kinetic at 2 h [4, 6] [µM]	solubility thermodynamic at 24 h [5] [µg/mL]	IC50 (DLD1-BRCA2−/− cells) [nM]	Caco2 efflux ratio (ER) (Caco-2 cell monolayers)	Caco2 A-B apparent permeability (Papp) (Caco-2 cell monolayers)	Caco2 B-A apparent permeability (Papp) (Caco-2 cell monolayers)	solubility kinetic at 2 h ([4]; 25° C., read-out: Kinetic solubility, PBS, pH 7.4) [µM]	Thermodynamic Solubility, FaSSiF ([5]; 25° C., 24 hours)
CCc1cc2ncc([C@@H](C)N3CC(Oc4ccc(C(=O)NC)nc4)C3)cc2[nH]c1=O [Compound 4, (R)-5-((1-(1-(7-ethyl-6-oxo-5,6-dihydro-1,5-naphthyridin-3-yl)ethyl)azetidin-3-yl)oxy)-N-methylpicolinamide]	10.3	> 10000	216	7.49	4.77	35.7	223 (≈ 90.9 µg/mL)	115 (≈ 283 µM)	–	–	–	–	–	–
CCc1cc2ncc([C@H](C)N3CC[C@@H](Oc4ccc(C(=O)NC)nc4)C3)cc2[nH]c1=O (single isomer, unassigned) [Compound 13, 5-(((R)-1-((enantiomer 1 or 2)-1-(7-ethyl-6-oxo-5,6-dihydro-1,5-naphthyridin-3-yl)ethyl)pyrrolidin-3-yl)oxy)-N-methylpicolinamide]	–	–	–	–	–	–	–	–	29.5	(ER = 7.91)	3.85 10*−6 cm/s	30.43 10*−6 cm/s	–	–
CCc1nc2ccc([C@H](C)N3CC(Oc4ccc(C(=O)NC)nc4)C3)cc2[nH]c1=O (single isomer, unassigned) [Compound 53, (enantiomer 1 or 2)-5-((1-(1-(2-ethyl-3-oxo-3,4-dihydroquinoxalin-6-yl)ethyl)azetidin-3-yl)oxy)-N-methylpicolinamide]	24.2	> 10000	–	–	–	–	–	–	12.1	(ER = 2.51)	13.2 10*−6 cm/s	33.19 10*−6 cm/s	–	–
CCc1nc2ccc([C@H](C)N3CC(Oc4ccc(C(=O)NC)nc4F)C3)cc2[nH]c1=O (single isomer, unassigned) [Compound 57, (enantiomer 1 or 2)-5-((1-(1-(2-ethyl-3-oxo-3,4-dihydroquinoxalin-6-yl)ethyl)azetidin-3-yl)oxy)-6-fluoro-N-methylpicolinamide]	7.3	–	–	–	–	–	–	–	9.1	(ER = 2.38)	12.25 10*−6 cm/s	29.21 10*−6 cm/s	–	–
CCc1cc2cnc([C@@H](C)N3CC(Oc4ccc(C(=O)NC)nc4)C3)cc2[nH]c1=O (single isomer, unassigned) [Compound 47, (enantiomer 1 or 2)-5-((1-(1-(3-ethyl-2-oxo-1,2-dihydro-1,6-naphthyridin-7-yl)ethyl)azetidin-3-yl)oxy)-N-methylpicolinamide]	5.8	> 10000	26.8	–	4.82	35.6	–	–	–	(ER = 7.38)	–	–	–	–
CCc1cc2cnc([C@@H](C)N3CC(Oc4ccc(C(=O)NC)nc4)C3)cc2[nH]c1=O (single isomer, unassigned) [Compound 48, (enantiomer 1 or 2)-5-((1-(1-(3-ethyl-2-oxo-1,2-dihydro-1,6-naphthyridin-7-yl)ethyl)azetidin-3-yl)oxy)-N-methylpicolinamide]	5.1	> 10000	–	–	–	–	–	–	21.9	(ER = 2.51)	8.96 10*−6 cm/s	22.47 10*−6 cm/s	–	–
CCc1cc2ncc([C@@H](C)N3CC(Oc4ccc(C(=O)NC)nc4F)C3)cc2[nH]c1=O (single isomer, unassigned; enantiomer 2) [Compound 46, (enantiomer 2)-5-((1-(1-(7-ethyl-6-oxo-5,6-dihydro-1,5-naphthyridin-3-yl)ethyl)azetidin-3-yl)oxy)-6-fluoro-N-methylpicolinamide]	4.3	2580	–	–	–	–	–	–	6.6	(ER = 8.07)	5.51 10*−6 cm/s	44.49 10*−6 cm/s	–	–
CCc1cc2ncc([C@H](C)N3CC(Oc4ccc(C(=O)NC)nc4)C3)cc2[nH]c1=O [Compound 5, (S)-5-((1-(1-(7-ethyl-6-oxo-5,6-dihydro-1,5-naphthyridin-3-yl)ethyl)azetidin-3-yl)oxy)-N-methylpicolinamide]	5.2	3120	6.9	9.78	3.39	33.2	250 (≈ 102 µg/mL)	107 (≈ 262 µM)	–	–	–	–	281.58 (≈ 115 µg/mL)	145.89 µg/mL and 126.09 µg/mL
CCc1cc2cnc([C@H](C)N3CC(Oc4ccc(C(=O)NC)nc4F)C3)cc2[nH]c1=O (single isomer, unassigned; enantiomer 2) [Compound 50, (enantiomer 2)-5-((1-(1-(3-ethyl-2-oxo-1,2-dihydro-1,6-naphthyridin-7-yl)ethyl)azetidin-3-yl)oxy)-6-fluoro-N-methylpicolinamide]	18.1	> 10000	–	–	–	–	–	–	7.2	(ER = 8.36)	3.84 10*−6 cm/s	32.1 10*−6 cm/s	–	–
CCc1cc2ncc(CN3CC(Oc4ccc(C(=O)NC)nc4)C3)cc2[nH]c1=O [Compound 1, 5-((1-((7-ethyl-6-oxo-5,6-dihydro-1,5-naphthyridin-3-yl)methyl)azetidin-3-yl)oxy)-N-methylpicolinamide]	4.8	–	4.5	–	3.86	22.7	29.4 (≈ 11.6 µg/mL)	1.77 (≈ 4.5 µM)	–	–	–	–	–	–
